Measurements published in patent publication US12018059B2, “Human amylin analog polypeptides and methods of use” (Intarcia Therapeutics, Inc., priority 2018, dated 2024).
Like-named read-outs stand apart in the source and are kept apart here. Positions of bridges follow the written chain, without caps; N, C: chain ends. Residues, ends and D or L forms follow the SMILES beside them.

Assay: Pharmacokinetics, 3-hour intravenous infusion of linear (non-acylated) polypeptides
Design: species or system Sprague-Dawley rats
Conditions: rat, in vivo, 0.1 mg/kg
Experimental: Peptides were dissolved in sterile saline and administered as a 3-hour intravenous infusion to non-fasted male Sprague-Dawley rats (n=3 per group) via femoral vein cannula at a final dose of 0.100 mg/kg. […] Blood samples (approximately 250 μL) were collected for pharmacokinetic analysis via a jugular vein cannula at 0.25, 0.5, 1, 2, 3, 3.17, 3.33, 3.5, 4, 4.5, 5, and 6 hr post-start of infusion (long method) or at 1, 1.5, 2, 2.5, and 3 hr post-start of infusion (steady-state screening method). All samples were collected into microtainer tubes containing K2EDTA as anticoagulant and 25 μL of a protease inhibitor cocktail. Plasma was prepared by centrifugation and stored at −80° C. until analysis. The results of this analysis are shown in Table 9 and few exemplars in FIGS. 3a-3b.
A 60 μL aliquot of each plasma sample was placed into to a 96-well plate. To each well was added 6 μL of 0.5% Tween-20. Plates were then vortexed mixed for 10 minutes at 1200 rpm before 180 μL of 0.1% TFA in 2:1 ethanol:acetonitrile containing an appropriate internal standard was added to each well. Plates were vortex mixed for 5 min at 1300 rpm, and then centrifuged for 10 min at 2844×g. Supernatants (180 μL) were placed into a clean 96-well plate and evaporated under a nitrogen stream at 45° C. Residues were reconstituted in 80 μL of 20% acetonitrile (aq) containing 0.1% formic acid.
A […] aliquot of each plasma sample was diluted with […] of 10 mM ammonium acetate (pH 6.8) containing an appropriate internal standard and loaded onto an Oasis WCX microElution plate (Waters Corporation, Milford, MA) that had been pre-conditioned with […] of methanol and […] of deionized water. Samples were washed with […] of 5% ammonium hydroxide (aq) followed by […] of 20% acetonitrile in water. The analyte was eluted with […] of 5% formic acid in 75:25 acetonitrile:water. The eluent was dried under a nitrogen stream. Residues were reconstituted in 80 μL of 20% acetonitrile (aq) containing 0.1% formic acid.
All calibration standards were prepared in control rat plasma containing K2EDTA and protease inhibitor cocktail.
Samples and standards were analyzed by TurbolonSpray™ UPLC-MS/MS using a system consisting of a CTC HTS PAL auto-injector (Leap, Carrboro, NC), an Agilent Infinity 1290 system with column oven (Palo Alto, CA), a Valco switching valve (Houston, TX), and either an AB Sciex API 5600 TripleTOF™ or Sciex API 4000QTrap mass spectrometer (Framingham, MA). Samples were injected onto a 2.1×50 mm reverse phase C18 analytical column, typically a Waters CORTECS UPLC C18+, 1.6 μm (Waters Corporation, Milford, MA) or similar. […] Initial conditions consisted of 90% A and 10% B. The organic component was increased to 95% B over a period of 3-4 minutes, depending on the peptide. Typical flow rates were 600 μL/min. The column temperature was held constant at 40 or 50° C. Peptides were quantified by monitoring one or more product ions produced from a multiply charged parent ion.

clearance (linear polypeptides, 3-hour intravenous infusion, 0.100 mg/kg, male Sprague-Dawley rats, read-out: CL)	clearance (iv)	SMILES
19.5 mL/min/kg	–	CC[C@H](C)[C@H](NC(=O)[C@@H]1CCCN1C(=O)CNC(=O)[C@H](Cc1ccccc1)NC(=O)[C@H](CC(N)=O)NC(=O)[C@H](CC(N)=O)NC(=O)[C@H](CO)NC(=O)[C@H](CO)NC(=O)[C@H](Cc1c[nH]cn1)NC(=O)[C@@H](NC(=O)[C@H](CC(C)C)NC(=O)[C@H](CCC(=O)O)NC(=O)[C@H](CC(N)=O)NC(=O)[C@H](C)NC(=O)[C@H](CC(C)C)NC(=O)[C@H](CCCNC(=N)N)NC(=O)[C@H](CO)NC(=O)[C@@H](NC(=O)[C@H](C)NC(=O)[C@@H]1CSSC[C@H](NC(=O)[C@@H](N)CO)C(=O)N[C@@H](CC(N)=O)C(=O)N[C@@H]([C@@H](C)O)C(=O)N[C@@H](CO)C(=O)N[C@@H]([C@@H](C)O)C(=O)N1)[C@@H](C)O)C(C)C)C(=O)N[C@@H](CC(C)C)C(=O)N1CCC[C@H]1C(=O)N1CCC[C@H]1C(=O)N[C@H](C(=O)N[C@@H](CC(N)=O)C(=O)N[C@H](C(=O)NCC(=O)N[C@@H](CO)C(=O)N[C@@H](CC(N)=O)C(=O)N[C@H](C(=O)N[C@@H](Cc1ccc(O)cc1)C(N)=O)[C@@H](C)O)C(C)C)[C@@H](C)O [Compound A32] (H-SCNTSTCATSRLANELVHSSNNFGPILPPTNVGSNTY-NH2; disulfide 2-7)
–	17.7 mL/min/kg	CC[C@H](C)[C@H](NC(=O)[C@@H]1CCCN1C(=O)CNC(=O)[C@H](Cc1ccccc1)NC(=O)[C@H](CC(N)=O)NC(=O)[C@H](CC(N)=O)NC(=O)[C@H](CO)NC(=O)[C@H](CO)NC(=O)[C@H](CCCNC(=N)N)NC(=O)[C@H](Cc1c[nH]cn1)NC(=O)[C@H](CC(C)C)NC(=O)[C@H](CCC(=O)O)NC(=O)[C@H](CC(N)=O)NC(=O)[C@H](CO)NC(=O)[C@H](CC(C)C)NC(=O)[C@H](CCCNC(=N)N)NC(=O)[C@H](CO)NC(=O)[C@@H](NC(=O)[C@H](C)NC(=O)[C@@H]1CSSC[C@H](NC(=O)[C@@H](N)CO)C(=O)N[C@@H](CC(N)=O)C(=O)N[C@@H]([C@@H](C)O)C(=O)N[C@@H](CO)C(=O)N[C@@H]([C@@H](C)O)C(=O)N1)[C@@H](C)O)C(=O)N[C@@H](CC(C)C)C(=O)N1CCC[C@H]1C(=O)N1CCC[C@H]1C(=O)N[C@H](C(=O)N[C@@H](CCCCN)C(=O)N[C@H](C(=O)NCC(=O)N[C@@H](CO)C(=O)N[C@@H](CCC(=O)O)C(=O)N[C@H](C(=O)N[C@@H](Cc1ccc(O)cc1)C(N)=O)[C@@H](C)O)C(C)C)[C@@H](C)O [Compound A33] (H-SCNTSTCATSRLSNELHRSSNNFGPILPPTKVGSETY-NH2; disulfide 2-7)
–	15.5 mL/min/kg	CC[C@H](C)[C@H](NC(=O)[C@@H]1CCCN1C(=O)CNC(=O)[C@H](Cc1ccccc1)NC(=O)[C@H](CC(N)=O)NC(=O)[C@H](CC(N)=O)NC(=O)[C@H](CO)NC(=O)[C@H](CO)NC(=O)[C@H](CCCNC(=N)N)NC(=O)[C@H](Cc1c[nH]cn1)NC(=O)[C@H](CC(C)C)NC(=O)[C@H](CCC(=O)O)NC(=O)[C@H](CC(N)=O)NC(=O)[C@H](CO)NC(=O)[C@H](CC(C)C)NC(=O)[C@H](CCCNC(=N)N)NC(=O)[C@H](CCC(N)=O)NC(=O)[C@@H](NC(=O)[C@H](C)NC(=O)[C@@H]1CSSC[C@H](NC(=O)[C@@H](N)CO)C(=O)N[C@@H](CC(N)=O)C(=O)N[C@@H]([C@@H](C)O)C(=O)N[C@@H](CO)C(=O)N[C@@H]([C@@H](C)O)C(=O)N1)[C@@H](C)O)C(=O)N[C@@H](CC(C)C)C(=O)N1CCC[C@H]1C(=O)N1CCC[C@H]1C(=O)N[C@H](C(=O)N[C@@H](CCCCN)C(=O)N[C@H](C(=O)NCC(=O)N[C@@H](CO)C(=O)N[C@@H](CCC(=O)O)C(=O)N[C@H](C(=O)N[C@@H](Cc1ccc(O)cc1)C(N)=O)[C@@H](C)O)C(C)C)[C@@H](C)O [Compound A34] (H-SCNTSTCATQRLSNELHRSSNNFGPILPPTKVGSETY-NH2; disulfide 2-7)
